Tests used:
[1] = tested on: p16INK4a; assay: p16INK4a western blots of RPE/Choroid after subretinal OAβ injection; format: in vivo, C57BL/6J WT mice; conditions: elevated by OAβ injection; subretinal co-injection 200 ng with 10 μM OAβ, topical drops 200 nM twice a day; day 7
Procedure: All animal experiments were performed according to ARVO Statement for the Use of Animals in Ophthalmic and Vision Research, and the protocol was approved by LSU Health New Orleans' Institutional Animal Care and Use Committee (IACUC). 6-month-old 5×FAD mice (stock number: 34848-JAX, The Jackson Laboratory, Bar Harbor, ME, USA), co-overexpress FAD mutant forms of human amyloid precursor protein (the Swedish mutation: K670N, M671L; the Florida mutation: I716V; and the London mutation: V7171) and presenilin 1 (PS1, encoded by Psen1: M146L, L286V) transgenes under transcriptional control of the neuron-specific mouse Thy1 promoter. 5×FAD mice were hemizygotes with respect to the transgenes and non-transgenic WT littermates. Genotyping was performed by PCR of tail DNA. All analyses were carried out blind with respect to the mice genotype. For the subretinal injection, 6-month-old C57BL/6J mice were anesthetized by an intraperitoneal injection of ketamine/xylazine, pupils dilated with 1.0% tropicamide (Akorn, IL, USA); and 0.5% Proparacaine Hydrochloride (Akorn) was applied for topical anesthesia. […]
Samples were lysed by RIPA buffer and protein determined by Bradford assay (Bio-Rad, Hercules, CA, USA). […] Densitometry data were statistically analyzed at 95% confidence level.

[2] = tested on: pro-inflammatory transcriptome and pro-homeostatic pathways in RPE single-cells; assay: UOS transcriptome in RPE single-cells; format: cell-based; conditions: 96 per sample
Source text: Dots in box plots represent expression of the gene for a single RPEC (total of 96 per sample). P<0.001 (***), P<0.01 (**), One-way Anova, with Post-Hoc Tukey HSD test for multiple comparisons.

[3] = tested on: ARPE-19 cells; assay: Protein abundance and apoptosis in ARPE-19 cells undergoing UOS; format: cell-based; conditions: RPE cells under UOS; sodium salt forms
Procedure: ELV-N32 or ELV-N34 indicates the sodium salt forms, and ELV-N34-Me or ELV-N32-Me indicates the methyl ester forms. ELVs induces the following effects in ARPE-19 cells undergoing UOS: (panel a) Concentration-dependent (100 and 250 nM) upregulation of SIRT1. The results are the averages of three independent experiments; (panel b) upregulation of Iduna abundance; (panel c) increased abundance of anti-apoptotic proteins Bcl-2 and Bcl-xL; (panel d) decreased abundance of pro-apoptotic proteins Bax, (panel e) Bid and (panel f) Bim. (panel g) Concentration-dependent (100 and 250 nM) upregulation of Prohibitin (type-1) by ELVs takes place. (panel h) Concentration-dependent (50, 100, 250, and 500 nM) reduction of UOS-induced apoptosis. Error bars, SEM; *p<0.05.

[4] = methyl ester or sodium salt, cited from earlier work; for infarct volumes: administered 1 hour following 2 hours of ischemia by MCA occlusion; for cell survival / neurovascular unit disruption: administered 1 hour following 2 hours of ischemia
[5] = tested on: autophagy, UPR, MMP, senescence and inflammation genes in HNEpC; assay: HNEpC challenged with HDM: gene expression; format: cell-based, human; conditions: 500 nM; HDM 30 μg/ml
Procedure: HDM triggered multiple signaling in human nasal epithelial cells. HNEpC challenged with HDM (D. farinae+D. pteronyssinus) (30 μg/ml) induces the expression of several genes related with autophagy (ATG3, ATG5, ATG7, BECLIN-1, and P62), unfolded protein response (UPR) (ATF6, CHOP, and IRE1) and matrix metalloproteinases (MMPs) (MMP8, MMP2, MMP9, MMP3, MMP12, TIMP1, and TIMP2). HDM stressors also induce the expression of senescence (P21, P16, P27, and P53) and inflammation genes (IL-1a, IL-6, and IL-10) on HNEpC. […] (*p<0.0001).

[6] = tested on: TP53 and IL8; assay: Human adipocytes treated with IL1β: TP53 and IL8 expression by Taqman Real time PCR; format: cell-based
Source text: A) experimental design. B) expression levels of TP53 and IL8 in human diabetic and non-diabetic adipocytes by the means of Tagman Real time PCR.

[7] = tested on: Adiponectin; assay: Adiponectin levels in diabetic hypothalamus and adipose tissue
[8] = tested on: degenerating neurons of hypothalamus; assay: Fluoro-Jade B staining of organotypic slices of hypothalamus; format: cell-based; conditions: 500 nM, 48 h incubation, adult obese diabetic db/db mice
Source text: Fluoro-Jade b (F-Jb) stains degenerating neurons.

| Compound | expression of the key senescence marker p16INK4a (western blots of RPE/Choroid) [1] | UOS up-regulation of pro-inflammatory transcriptome and down-regulation of pro-homeostatic pathways [2] | abundance of cell damaging proteins [3] | abundance of pro-homeostatic proteins [3] | infarct volumes [4] | cell survival [4] | neurovascular unit disruption [4] | expression of MMP genes (MMP8, MMP2, MMP9, MMP3, MMP12, TIMP1, TIMP2) [5] | expression of inflammation / senescence-associated cytokine genes [5] | expression of senescence genes (P21, P16, P27; except P53) [5] | IL8 brought down (elevated by IL1β) ([6]; 500 nM, both diabetic and non-diabetic adipocytes) | levels of TP53 mRNA ([6]; human adipocytes from diabetic patient treated with IL1β) | effect of IL1β (expression levels of TP53 and IL8) ([6]; human diabetic adipocytes) | adiponectin in subcutaneous adipose tissue (SAT) and visceral adipose tissue (VAT) [7] | levels of Adiponectin ([7]; ELV34 treatment) | adiponectin in diabetic hypothalamus ([7]; female and males) | Fluoro-Jade b (F-Jb) signal (neuroprotection) [8] |
| --- | --- | --- | --- | --- | --- | --- | --- | --- | --- | --- | --- | --- | --- | --- | --- | --- | --- |
| CC/C=C\C[C@H](O)\C=C/C=C/C=C/[C@H](O)C/C=C\C/C=C\CCCCCCCCCCCCC(=O)O [ELV-N-32] | down regulated | suppress these changes | decrease abundance | enhance abundance | reduced | promoted | diminished |  |  |  |  |  |  |  |  |  |  |
| CC/C=C\C[C@H](O)\C=C/C=C/C=C/[C@H](O)C/C=C\C/C=C\CCCCCCCCCCCCCCC(=O)O [ELV-N-34] | down regulated |  | decrease abundance | enhance abundance | reduced | promoted | diminished | inhibits these effects | inhibits these effects | inhibits these effects | around 40 folds | down to non-diabetic control levels | revert the effect | Differential effect | increased | trend of increase | decrease of F-Jb signal |

Source: patent US20240075004A1, “VERY-LONG-CHAIN POLYUNSATURATED FATTY ACIDS, ELOVANOID HYDROXYLATED DERIVATIVES, AND METHODS OF USE” (The Board of Supervisors of Louisiana State University and …, priority 2020, published 2024)
